Experimental data: patent publication US9000025B2, “Autotaxin inhibitors and uses thereof” (Amira Pharmaceuticals, Inc., priority 2010, dated 2015)

Molecular target: T1, autotaxin (ATX) (Homo sapiens, UniProt Q13822)
T1 construct: conditioned medium from the human melanoma cell line, MDA-MB-4355, which endogenously expresses autotaxin; host or cells: MDA-MB-435S human melanoma cells; serum-free conditioned medium, concentrated 20-fold
Assay: Native Autotaxin Choline Release Assay
Type: biochemical
Conditions: autotaxin in conditioned medium from human melanoma cell line; choline released from LPC; read-out: MDA-MB-435S Assay IC50
In short: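 Native ATX from conditioned serum-free, phenol-red-free DMEM of confluent cells cultured 48 h; LPC as substrate. Released choline detected with choline oxidase/peroxidase/4-aminoantipyrine colour mix in 50 mM Tris pH 8, 10 min at 37 °C, absorbance 555 nm; choline quantified against standard curve, equated to LPA formed.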

| IC50 [µM] | SMILES |
| --- | --- |
| < 0.3 | CCn1cc(-n2c(C)c(Sc3cccc(C(=O)O)c3)c3ccc(Cl)c(C)c32)cn1 [Compound 3-21, 3-[6-Chloro-1-(1-ethyl-1H-pyrazol-4-yl)-2,7-dimethyl-1H-indol-3-ylsulfanyl]-benzoic acid] |
| < 0.3 | Cc1cncc(-n2c(C)c(Sc3cccc(C(=O)O)c3)c3ccc(Cl)c(F)c32)c1 [Compound 3-22, 3-[6-Chloro-7-fluoro-2-methyl-1-(5-methyl-pyridin-3-yl)-1H-indol-3-ylsulfanyl]-benzoic acid] |
| < 0.3 | Cc1c(Sc2cccc(C(=O)O)c2)c2ccc(Cl)c(F)c2n1-c1cnn(-c2ccccc2)c1 [Compound 3-23, 3-[6-Chloro-7-fluoro-2-methyl-1-(1-phenyl-1H-pyrazol-4-yl)-1H-indol-3-ylsulfanyl]-benzoic acid] |
| < 0.3 | CCCn1cc(-n2c(C)c(Sc3cccc(C(=O)O)c3)c3ccc(Cl)c(F)c32)cn1 [Compound 3-24, 3-[6-Chloro-7-fluoro-2-methyl-1-(1-propyl-1H-pyrazol-4-yl)-1H-indol-3-ylsulfanyl]-benzoic acid] |
| < 0.3 | CCc1cncc(-n2c(C)c(Sc3cccc(C(=O)O)c3)c3ccc(Cl)c(F)c32)c1 [Compound 3-25, 3-[6-Chloro-1-(5-ethyl-pyridin-3-yl)-7-fluoro-2-methyl-1H-indol-3-ylsulfanyl]-benzoic acid] |
| < 0.3 | CCn1cc(-n2c(C)c(Sc3cccc(C(=O)O)c3)c3cc(F)c(Cl)cc32)cn1 [Compound 3-26, 3-[6-Chloro-1-(1-ethyl-1H-pyrazol-4-yl)-5-fluoro-2-methyl-1H-indol-3-ylsulfanyl]-benzoic acid] |
| < 0.3 | CCCn1cc(-n2c(C)c(Sc3cccc(C(=O)O)c3)c3cc(F)c(Cl)cc32)cn1 [Compound 3-27, 3-[6-Chloro-5-fluoro-2-methyl-1-(1-propyl-1H-pyrazol-4-yl)-1H-indol-3-ylsulfanyl]-benzoic acid] |
| < 0.3 | CCn1cc(-n2c(C)c(Sc3cccc(CC(=O)O)c3)c3ccc(Cl)c(F)c32)cn1 [Compound 3-28, {3-[6-Chloro-1-(1-ethyl-1H-pyrazol-4-yl)-7-fluoro-2-methyl-1H-indol-3-ylsulfanyl]-phenyl}-acetic acid] |
| < 0.3 | CCn1cc(-n2c(C)c(Sc3cccc(C(=O)NS(C)(=O)=O)c3)c3ccc(Cl)c(F)c32)cn1 [Compound 3-29, N-{3-[6-Chloro-1-(1-ethyl-1H-pyrazol-4-yl)-7-fluoro-2-methyl-1H-indol-3-ylsulfanyl]-benzoyl}-methanesulfonamide] |
| < 0.3 | CCn1cc(-n2c(C)c(Sc3ccc(CC(=O)O)cc3)c3ccc(Cl)cc32)cn1 [Compound 3-30, {4-[6-Chloro-1-(1-ethyl-1H-pyrazol-4-yl)-2-methyl-1H-indol-3-ylsulfanyl]-phenyl}-acetic acid] |
| < 0.3 | CCn1cc(-n2c(C)c(Sc3cccc(C(=O)O)c3)c3ccc(C#N)cc32)cn1 [Compound 3-31, 3-[6-Cyano-1-(1-ethyl-1H-pyrazol-4-yl)-2-methyl-1H-indol-3-ylsulfanyl]-benzoic acid] |
| < 0.3 | Cc1ccc(-n2cc(-n3c(C)c(Sc4cccc(C(=O)O)c4)c4ccc(Cl)c(F)c43)cn2)cc1 [Compound 3-32, 3-[6-Chloro-7-fluoro-2-methyl-1-(1-p-tolyl-1H-pyrazol-4-yl)-1H-indol-3-ylsulfanyl]-benzoic acid] |
| < 0.3 | Cc1c(Sc2cccc(C(=O)O)c2)c2ccc(Cl)c(F)c2n1-c1cnn(-c2cccc(Cl)c2)c1 [Compound 3-33, 3-{6-Chloro-1-[1-(3-chloro-phenyl)-1H-pyrazol-4-yl]-7-fluoro-2-methyl-1H-indol-3-ylsulfanyl}-benzoic acid] |
| < 0.3 | Cc1c(Sc2cccc(C(=O)O)c2)c2ccc(Cl)c(F)c2n1-c1cnn(CC2CC2)c1 [Compound 3-34, 3-[6-Chloro-1-(1-cyclopropylmethyl-1H-pyrazol-4-yl)-7-fluoro-2-methyl-1H-indol-3-ylsulfanyl]-benzoic acid] |
| < 0.3 | Cc1c(Sc2cccc(C(=O)O)c2)c2ccc(Cl)c(F)c2n1-c1cnn(C2CCCC2)c1 [Compound 3-35, 3-[6-Chloro-1-(1-cyclopentyl-1H-pyrazol-4-yl)-7-fluoro-2-methyl-1H-indol-3-ylsulfanyl]-benzoic acid] |
| < 0.3 | Cc1c(Sc2cccc(C(=O)O)c2)c2ccc(Cl)c(F)c2n1-c1cnn(C2CCC2)c1 [Compound 3-36, 3-[6-Chloro-1-(1-cyclobutyl-1H-pyrazol-4-yl)-7-fluoro-2-methyl-1H-indol-3-ylsulfanyl]-benzoic acid] |
| < 0.3 | CCCn1cc(-n2c(C)c(Sc3cccc(CC(=O)O)c3)c3ccc(Cl)c(F)c32)cn1 [Compound 3-37, {3-[6-chloro-7-fluoro-2-methyl-1-(1-propyl-1H-pyrazol-4-yl)-1H-indol-3-ylsulfanyl]-phenyl}-acetic acid] |

| IC50 [µM] | SMILES |
| --- | --- |
| < 0.3 | CCn1cc(-n2c(C)c(Sc3cccc(C(=O)NS(=O)(=O)c4ccccc4)c3)c3ccc(Cl)c(F)c32)cn1 [Compound 3-42, N-{3-[6-Chloro-1-(1-ethyl-1H-pyrazol-4-yl)-7-fluoro-2-methyl-1H-indol-3-ylsulfanyl]-benzoyl}-benzenesulfonamide] |
| < 0.3 | Cc1c(Sc2cccc(C(=O)O)c2)c2ccc(Cl)c(F)c2n1-c1cnn(C2CC2)c1 [Compound 3-47, 3-[6-Chloro-1-(1-cyclopropyl-1H-pyrazol-4-yl)-7-fluoro-2-methyl-1H-indol-3-ylsulfanyl]-benzoic acid] |
| < 0.3 | COc1ccc(Cn2cc(-n3c(C)c(Sc4cccc(C(=O)O)c4)c4ccc(Cl)c(F)c43)cn2)cc1 [Compound 3-48, 3-{6-Chloro-7-fluoro-1-[1-(4-methoxy-benzyl)-1H-pyrazol-4-yl]-2-methyl-1H-indol-3-ylsulfanyl}-benzoic acid] |
| < 0.3 | Cc1c(Sc2cccc(C(=O)O)c2)c2ccc(Cl)c(F)c2n1-c1cn[nH]c1 [Compound 3-49, 3-[6-Chloro-7-fluoro-2-methyl-1-(1H-pyrazol-4-yl)-1H-indol-3-ylsulfanyl]-benzoic acid] |
| < 0.3 | Cc1c(Sc2cccc(C(=O)O)c2)c2ccc(Cl)c(F)c2n1-c1cnn(CCO)c1 [Compound 3-50, 3-{6-Chloro-7-fluoro-1-[1-(2-hydroxy-ethyl)-1H-pyrazol-4-yl]-2-methyl-1H-indol-3-ylsulfanyl}-benzoic acid] |
| < 0.3 | CCn1cc(-n2c(C)c(Sc3cccc(C(=O)NS(=O)(=O)C4CC4)c3)c3ccc(Cl)c(F)c32)cn1 [Compound 3-51, cyclopropanesulfonic acid 3-[6-chloro-1-(1-ethyl-1H-pyrazol-4-yl)-7-fluoro-2-methyl-1H-indol-3-ylsulfanyl]-benzoylamide] |
| < 0.3 | CCn1cc(-n2c(C)c(Sc3cccc(C(=O)O)c3)c3ccc(Cl)c(Cl)c32)cn1 [Compound 3-52, 3-[6,7-Dichloro-1-(1-ethyl-1H-pyrazol-4-yl)-2-methyl-1H-indol-3-ylsulfanyl]-benzoic acid] |
| < 0.3 | CCCn1cc(-n2c(C)c(Sc3cccc(CC(=O)NS(C)(=O)=O)c3)c3ccc(Cl)cc32)cn1 [Compound 3-53, N-(2-{3-[6-Chloro-2-methyl-1-(1-propyl-1H-pyrazol-4-yl)-1H-indol-3-ylsulfanyl]-phenyl}-acetyl)-methanesulfonamide] |
| < 0.3 | CCCn1cc(-n2c(C)c(Sc3cccc(CC(=O)NS(=O)(=O)C4CC4)c3)c3ccc(Cl)cc32)cn1 [Compound 3-54, cyclopropanesulfonic acid (2-{3-[6-chloro-2-methyl-1-(1-propyl-1H-pyrazol-4-yl)-1H-indol-3-ylsulfanyl]-phenyl}-acetyl)-amide] |
| < 0.3 | CCCn1cc(-n2c(C)c(Sc3cccc(CC(=O)NS(=O)(=O)c4ccccc4)c3)c3ccc(Cl)cc32)cn1 [Compound 3-55, N-(2-{3-[6-Chloro-2-methyl-1-(1-propyl-1H-pyrazol-4-yl)-1H-indol-3-ylsulfanyl]-phenyl}-acetyl)-benzenesulfonamide] |
| < 0.3 | Cc1c(Sc2cccc(C(=O)O)c2)c2ccc(Cl)c(F)c2n1-c1cnn(C(C)C)c1 [Compound 3-56, 3-[6-Chloro-7-fluoro-1-(1-isopropyl-1H-pyrazol-4-yl)-2-methyl-1H-indol-3-ylsulfanyl]-benzoic acid] |
| < 0.3 | Cc1c(Sc2cccc(C(=O)O)c2)c2ccc(Cl)c(F)c2n1-c1cnn(C)c1 [Compound 3-57, 3-[6-Chloro-7-fluoro-2-methyl-1-(1-methyl-1H-pyrazol-4-yl)-1H-indol-3-ylsulfanyl]-benzoic acid] |
| 0.3 to 1 | CCn1ccc(-n2c(C)c(Sc3cccc(C(=O)O)c3)c3ccc(Cl)c(F)c32)n1 [Compound 3-58, 3-[6-Chloro-1-(1-ethyl-1H-pyrazol-3-yl)-7-fluoro-2-methyl-1H-indol-3-ylsulfanyl]-benzoic acid] |
| < 0.3 | Cc1c(Sc2cccc(C(=O)O)c2)c2ccc(Cl)c(F)c2n1-c1cnn(C(C)(C)C)c1 [Compound 3-60, 3-[1-(1-tert-Butyl-1H-pyrazol-4-yl)-6-chloro-7-fluoro-2-methyl-1H-indol-3-ylsulfanyl]-benzoic acid] |
| < 0.3 | Cc1cc(-n2c(C)c(Sc3cccc(C(=O)O)c3)c3ccc(Cl)c(F)c32)cs1 [Compound 3-61, 3-[6-Chloro-7-fluoro-2-methyl-1-(5-methyl-thiophen-3-yl)-1H-indol-3-ylsulfanyl]-benzoic acid] |
| 0.3 to 1 | Cc1ccc(-n2c(C)c(Sc3cccc(C(=O)O)c3)c3ccc(Cl)c(F)c32)s1 [Compound 3-62, 3-[6-Chloro-7-fluoro-2-methyl-1-(5-methyl-thiophen-2-yl)-1H-indol-3-ylsulfanyl]-benzoic acid] |
| < 0.3 | CCn1cc(-n2c(C)c(Sc3cc(F)cc(C(=O)O)c3)c3ccc(Cl)c(F)c32)cn1 [Compound 4-2, 3-[6-Chloro-1-(1-ethyl-1H-pyrazol-4-yl)-7-fluoro-2-methyl-1H-indol-3-ylsulfanyl]-5-fluoro-benzoic acid] |
